Assay [1] has as its target EGFR (mutated) 695-1022, T790M, C797S, L858R (Homo sapiens (Human), UniProt P00533, C797S/L858R/T790M). Put plainly: Biochemical EGFR inhibition assay (TR-FRET, poly-GT substrate), EGFR T790M C797S L858R. As for the experimental part:
(§1) Biochemical EGFR Inhibition Assays
(§2) Initially, the inhibitory effect of compounds according to the invention is measured in biochemical assays which measure the phosphorylation activity of EGFR enzyme forms on poly-GT substrate in the presence of different concentrations of ATP (5 μM and 100 μM final assay concentration).
(§3) The following enzyme forms of EGFR are representative examples that can be used in these assays at the given concentrations:
(§4) For the chosen highest assay concentration of 100 μM, 150 nL of compound solution is transferred from a 10 mM DMSO compound stock solution. A series of eleven fivefold dilutions per compound is transferred to the assay plate, compound dilutions are tested in duplicates. DMSO is added as backfill to a total volume of 150 nL. The assay runs on a fully automated robotic system.
(§5) These biochemical EGFR enzyme form compound dose-response assays quantify the kinase activity via phosphorylation of a tagged poly-GT substrate. The results of the assay are provided as IC50 values.

The target of a further assay is EGFR wt (Homo sapiens (Human), UniProt P00533). Put plainly: Biochemical EGFR inhibition assay (TR-FRET, poly-GT substrate), EGFR wt. As for the experimental part:
as §1, §2, §3, §4, §5
Background: Time-resolved FRET reads energy transfer from a long-lived donor to a nearby acceptor.

In assay [2] the target is EGFR del19 T790M C797S protein in Ba/F3 cells (Homo sapiens, UniProt P00533, C797S/DEL746-750/T790M). Description: pEGFR assay (AlphaScreen Surefire, EGFR Tyr1068 phosphorylation). Type of assay: cell-based. As for the experimental part: Transduced cells were selected using puromycin. Following selection, IL-3 was withdrawn and IL-3 independent cells cultured. p-EGFR Tyr1068 was determined using the AlphaScreen Surefire pEGF Receptor (Tyr1068) Assay (PerkinElmer, TGRERS). […] Subsequently, 60.000 cells/well in 60 μL were added. Cells were incubated with compound for 4 h at 37° C. […] The mixture was incubated at room temperature with shaking (700 rpm) for 20 min. After centrifugation, 4 μL of the lysate were transferred to Proxiplates. […] Plates were shaken for 1 min (1400 rpm) and incubated for 2 h at room temperature in the dark.
The results of the assay are provided as IC50 values (see table 12).
In general terms: In Alpha technology, singlet oxygen from a donor bead excites a nearby acceptor bead.

The mark [3] stands for this setting: read-out: LR_TM_CS (5 μM ATP) IC50, 5 μM ATP.
The mark [4] stands for this setting: read-out: wt (5 μM ATP) IC50, 5 μM ATP.

For orientation: IC50 means the concentration that inhibits the measured activity by half.

Each structure is given as a SMILES string. Like-named read-outs stand apart in the source and are kept apart here.

EGFR wt, sequence (P00533 25-1210): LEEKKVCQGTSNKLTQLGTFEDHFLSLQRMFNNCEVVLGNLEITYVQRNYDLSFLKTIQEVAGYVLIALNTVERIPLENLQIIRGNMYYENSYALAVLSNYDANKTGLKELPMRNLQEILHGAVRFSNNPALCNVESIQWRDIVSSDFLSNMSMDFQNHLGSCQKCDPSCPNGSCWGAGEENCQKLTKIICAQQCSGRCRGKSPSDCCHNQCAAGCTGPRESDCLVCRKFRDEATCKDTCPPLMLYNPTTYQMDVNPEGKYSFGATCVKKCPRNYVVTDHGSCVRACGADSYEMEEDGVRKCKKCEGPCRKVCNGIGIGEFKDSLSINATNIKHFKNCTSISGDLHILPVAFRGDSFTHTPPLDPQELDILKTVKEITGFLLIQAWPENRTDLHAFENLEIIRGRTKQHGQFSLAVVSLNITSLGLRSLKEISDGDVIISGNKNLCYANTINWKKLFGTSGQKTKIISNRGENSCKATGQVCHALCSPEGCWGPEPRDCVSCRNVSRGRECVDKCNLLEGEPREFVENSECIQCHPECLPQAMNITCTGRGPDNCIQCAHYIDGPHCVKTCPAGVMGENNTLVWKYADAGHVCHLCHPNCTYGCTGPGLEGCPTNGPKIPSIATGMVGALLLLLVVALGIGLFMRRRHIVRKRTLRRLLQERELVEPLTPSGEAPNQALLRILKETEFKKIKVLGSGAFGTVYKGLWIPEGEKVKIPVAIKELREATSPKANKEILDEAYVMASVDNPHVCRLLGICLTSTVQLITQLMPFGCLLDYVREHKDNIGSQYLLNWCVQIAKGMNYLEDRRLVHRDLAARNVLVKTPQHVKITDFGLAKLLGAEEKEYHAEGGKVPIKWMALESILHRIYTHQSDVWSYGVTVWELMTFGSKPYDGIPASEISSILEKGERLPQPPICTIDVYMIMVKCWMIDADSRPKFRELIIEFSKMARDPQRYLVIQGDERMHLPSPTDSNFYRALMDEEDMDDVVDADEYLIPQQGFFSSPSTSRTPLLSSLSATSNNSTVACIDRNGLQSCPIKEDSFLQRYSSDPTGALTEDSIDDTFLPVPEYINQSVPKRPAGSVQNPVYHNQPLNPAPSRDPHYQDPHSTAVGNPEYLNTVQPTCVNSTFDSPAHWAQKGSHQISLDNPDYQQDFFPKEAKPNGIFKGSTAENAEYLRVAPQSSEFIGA
EGFR del19 T790M C797S protein in Ba/F3 cells, sequence (P00533 with tags, fused parts or gaps C797S/DEL746-750/T790M limits assumed): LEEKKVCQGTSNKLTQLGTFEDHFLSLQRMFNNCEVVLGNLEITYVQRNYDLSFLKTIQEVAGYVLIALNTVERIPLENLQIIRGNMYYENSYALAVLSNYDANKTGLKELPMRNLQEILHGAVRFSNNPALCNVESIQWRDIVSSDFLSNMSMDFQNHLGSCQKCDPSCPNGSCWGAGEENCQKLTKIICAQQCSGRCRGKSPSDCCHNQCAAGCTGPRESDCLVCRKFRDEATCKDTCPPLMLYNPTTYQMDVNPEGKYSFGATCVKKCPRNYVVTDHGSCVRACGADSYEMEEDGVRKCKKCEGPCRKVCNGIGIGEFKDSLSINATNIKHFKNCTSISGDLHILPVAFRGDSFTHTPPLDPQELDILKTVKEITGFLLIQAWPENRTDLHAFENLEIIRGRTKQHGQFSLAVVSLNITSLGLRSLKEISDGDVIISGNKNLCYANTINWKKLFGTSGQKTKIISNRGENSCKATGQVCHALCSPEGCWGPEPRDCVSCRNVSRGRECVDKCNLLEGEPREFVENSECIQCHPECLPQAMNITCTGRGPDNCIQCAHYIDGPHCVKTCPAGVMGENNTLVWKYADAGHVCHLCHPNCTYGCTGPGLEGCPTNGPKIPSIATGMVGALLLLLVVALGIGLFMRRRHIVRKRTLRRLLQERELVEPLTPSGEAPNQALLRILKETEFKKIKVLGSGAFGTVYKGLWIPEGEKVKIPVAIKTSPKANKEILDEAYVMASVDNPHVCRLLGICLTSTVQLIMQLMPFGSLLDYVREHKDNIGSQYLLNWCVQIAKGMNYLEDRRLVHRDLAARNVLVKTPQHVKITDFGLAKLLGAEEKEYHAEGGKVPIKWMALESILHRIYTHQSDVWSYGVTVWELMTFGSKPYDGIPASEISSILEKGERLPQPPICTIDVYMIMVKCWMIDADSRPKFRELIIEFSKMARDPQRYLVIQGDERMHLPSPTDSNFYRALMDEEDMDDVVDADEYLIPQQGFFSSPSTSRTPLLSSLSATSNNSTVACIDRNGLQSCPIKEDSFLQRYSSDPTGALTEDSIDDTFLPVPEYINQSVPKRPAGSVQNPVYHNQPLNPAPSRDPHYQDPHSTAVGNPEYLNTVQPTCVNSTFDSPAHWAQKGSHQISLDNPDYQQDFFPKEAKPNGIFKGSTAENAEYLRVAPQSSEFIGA
EGFR (mutated) 695-1022, T790M, C797S, L858R, sequence (P00533 695-1022 T790M/C797S/L858R): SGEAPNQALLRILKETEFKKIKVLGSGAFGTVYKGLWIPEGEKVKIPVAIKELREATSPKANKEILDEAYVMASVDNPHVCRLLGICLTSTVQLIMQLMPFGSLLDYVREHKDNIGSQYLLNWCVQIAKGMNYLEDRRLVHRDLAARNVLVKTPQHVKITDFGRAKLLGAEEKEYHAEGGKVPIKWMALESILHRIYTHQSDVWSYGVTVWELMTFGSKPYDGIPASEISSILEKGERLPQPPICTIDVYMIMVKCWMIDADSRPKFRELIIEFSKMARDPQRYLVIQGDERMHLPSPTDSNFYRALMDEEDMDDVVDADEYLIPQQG

As for `CN(C)Cc1cccc(-c2cc(C(=O)/N=c3\[nH]c4ccccc4n3[C@H]3CC[C@@H](O)CC3)ccn2)c1` [I-114], the IC50 was determined as 18.6 nM in assay [1] (read-out: LR_TM_CS (100 μM ATP) IC50, 100 μM ATP); 6650 nM on EGFR wt (read-out: wt (100 μM ATP) IC50, 100 μM ATP); 2 nM in assay [2].
For the compound `Cc1cc(C(=O)/N=c2\[nH]c3cc(CN4CCOCC4)ccc3n2[C@H]2CCC[C@H](O)C2)cc(-c2cnn(C)c2)n1` [I-209], the IC50 was 8.1 nM in assay [1] (setting [3]), 5800 nM on EGFR wt (setting [4]) and 14 nM in assay [2].
Regarding `Cc1cc(C(=O)/N=c2\[nH]c3cc(CN4CCN(C)CC4)ccc3n2[C@H]2CCC[C@H](O)C2)cc(-c2cnn(C)c2)n1` [I-208], the IC50 was 5.4 nM in assay [1] (setting [3]), 7470 nM on EGFR wt (setting [4]) and 44 nM in assay [2].
The like results for `Cn1cc(-c2cc(C(=O)/N=c3\[nH]c4ccccc4n3C3CCCS(=O)(=O)C3)ccn2)cn1` (stereo not drawn) [I-212] were, in that order, 2.5 nM, 318 nM and 22 nM.
For `Cn1cc(-c2cc(C(=O)/N=c3\[nH]c4ccccc4n3[C@H]3COC[C@H](O)C3)ccn2)cn1` [I-168] the same measures were 5 nM, 1270 nM and 10 nM.
Regarding `O=C(/N=c1\[nH]c2ccccc2n1[C@H]1CC[C@@H](O)CC1)c1ccnc(-c2cnn(C(F)F)c2)c1` [I-201], the results for the IC50 (in assay [1] (setting [3]); at EGFR wt (setting [4]); in assay [2]) were 1.2 nM, 231 nM and 2 nM, respectively.
Take `COc1ccccc1-c1cc(C(=O)/N=c2\[nH]c3cc(CN4CCOCC4)ccc3n2CC(C)(C)O)ccn1` [I-060]: the figures for the IC50 (in assay [1] (setting [3]); on EGFR wt (setting [4]); in assay [2]) were 0.7 nM, 65.6 nM and 1 nM, respectively.
Turning to `CCc1ccc2c(c1)[nH]/c(=N\C(=O)c1ccnc(-c3cnn(C)c3)c1)n2CC(C)(C)O` [I-061], in assay [2], inhibition was half-maximal at 7 nM (IC50).
Same read-out and setting: the same measure for `CC(C)(O)Cn1/c(=N/C(=O)c2ccnc(-c3cccs3)c2)[nH]c2ccccc21` [I-051]: 27 nM; for `COc1ccccc1-c1cc(C(=O)/N=c2\[nH]c3ccccc3n2[C@H]2CCC[C@H](O)C2)ccn1` [I-119]: 3 nM.
Same read-out and setting: the same measure for `CC(C)(O)Cn1/c(=N/C(=O)c2ccnc(-c3cccnc3)c2)[nH]c2cc(Cl)ccc21` [I-066]: 23 nM; for `CN(C)CCNc1ccc2c(c1)[nH]/c(=N\C(=O)c1ccnc(-c3cnn(C)c3)c1)n2CC(C)(C)O` [I-82]: 14 nM; for `CN(C)C1CCN(c2ccc3c(c2)[nH]/c(=N\C(=O)c2ccnc(-c4cnn(C)c4)c2)n3CC(C)(C)O)C1` (stereo not drawn) [I-80]: 89 nM.
In the case of `Cc1cc(C(=O)/N=c2\[nH]c3ccc(C4CCN(C)CC4)cc3n2C2CCCCC2)cc(-c2cnn(C)c2)n1` [I-228], the half-maximal inhibitory concentration (IC50) in assay [2] was 2 nM.
Regarding `COc1ccccc1-c1cc(C(=O)/N=c2\[nH]c3ccccc3n2[C@@H]2CCC[C@H](O)C2)ccn1` [I-129], the IC50 in assay [2] was 5 nM.
In turn, `COc1ccccc1-c1cc(C(=O)/N=c2\[nH]c3cc(CN4CCOCC4)ccc3n2[C@H]2CC[C@@H](O)CC2)ccn1` [I-142] registered an IC50 in assay [2] of 3 nM.
On the same count and under the same terms, then `CN(C)C(=O)c1cccc(-c2cc(C(=O)/N=c3\[nH]c4ccccc4n3CC(C)(C)O)ccn2)c1` [I-103], with 43 nM; and `CC(C)(O)Cn1/c(=N/C(=O)c2ccnc(-n3ccc4cccnc43)c2)[nH]c2ccccc21` [I-188], with 30 nM.
Same read-out and setting: then `COc1ccccc1-c1cc(C(=O)/N=c2\[nH]c3ccccc3n2[C@@H]2CCCC[C@H]2O)ccn1` [I-132], with 7 nM; and `O=C(/N=c1\[nH]c2ccccc2n1[C@H]1CC[C@@H](O)CC1)c1ccnc(-c2ccccc2Cl)c1` [I-160], with 6 nM; and `COc1ccccc1-c1cc(C(=O)/N=c2\[nH]c3ccccc3n2[C@H]2CCCC[C@@H]2O)ccn1` [I-97], with 14 nM.
With `Cn1cc(-c2cc(C(=O)/N=c3\[nH]c4cc(N5CCC6(CCOCC6)CC5)ccc4n3CC(C)(C)O)ccn2)cn1` [I-74], the IC50 in assay [2] was 71 nM.
The same measure, in the same setting: the same measure for `CNC(=O)Cc1ccc2c(c1)[nH]/c(=N\C(=O)c1ccnc(-c3cccnc3)c1)n2CC(C)(C)O` [I-131]: 92 nM; for `CC(C)(O)Cn1/c(=N/C(=O)c2ccnc(-c3cnccc3Cl)c2)[nH]c2ccccc21` [I-027]: 55 nM.
On the same count and under the same terms, the same measure for `CN(C)Cc1cccc(-c2cc(C(=O)/N=c3\[nH]c4ccccc4n3C3CCCCC3)ccn2)c1` [I-117]: 12 nM; for `Cc1ccncc1-c1cc(C(=O)/N=c2\[nH]c3ccccc3n2CC(C)(C)O)ccn1` [I-016]: 58 nM; for `O=C(/N=c1\[nH]c2ccccc2n1[C@H]1CC[C@@H](O)CC1)c1ccnc(-c2ccccc2OC(F)(F)F)c1` [I-187]: 24 nM.
Same read-out and setting: the same measure for `O=C(/N=c1\[nH]c2ccccc2n1[C@H]1CC[C@@H](O)CC1)c1ccnc(-n2ccnc2)c1` [I-226]: 7 nM.
`COCCN(C)c1ccc2c(c1)[nH]/c(=N\C(=O)c1ccnc(-c3cccnc3)c1)n2CC(C)(C)O` [I-065] had an IC50 in assay [2] of 30 nM.
On the same count and under the same terms, the same measure for `COc1ccccc1-c1cc(C(=O)/N=c2\[nH]c3ccccc3n2[C@@H]2CC[C@@H](O)[C@@H](O)C2)ccn1` [I-234]: 4 nM; for `Cn1cc(-c2cc(C(=O)/N=c3\[nH]c4cc(C(C)(C)O)ccc4n3CC(C)(C)O)ccn2)cn1` [I-063]: 74 nM; for `CC(C)(O)Cn1/c(=N/C(=O)c2ccnc(-c3cccnc3)c2)[nH]c2cc(CO)ccc21` [I-067]: 16 nM.
On the same count and under the same terms, then `COCCN1CCC(c2ccc3c(c2)[nH]/c(=N\C(=O)c2ccnc(-c4cccnc4)c2)n3CC(C)(C)O)CC1` [I-046], with 2 nM; and `COc1ccccc1-c1cc(C(=O)/N=c2\[nH]c3ccccc3n2[C@H]2COCC[C@@H]2O)ccn1` [I-155], with 5 nM.
In turn, `CNC(=O)c1cccc(-c2cc(C(=O)/N=c3\[nH]c4ccccc4n3CC(C)(C)O)ccn2)c1` [I-100] yielded an IC50 in assay [2] of 76 nM.
`COCCN1CCC(c2ccc3[nH]/c(=N\C(=O)c4cc(C)nc(-c5cnn(C)c5)c4)n(C4CCCCC4)c3c2)CC1` [I-229] showed an IC50 in assay [2] of 23 nM.
On the same count and under the same terms, the same measure for `O=C(/N=c1\[nH]c2ccccc2n1[C@H]1CC[C@@H](O)CC1)c1ccnc(-n2ccc3cccnc32)c1` [I-150]: 4 nM; for `Cc1c(-c2cc(C(=O)/N=c3\[nH]c4ccccc4n3C3CCCCC3)ccn2)cnn1C` [I-044]: 2 nM; for `COCCN1CCC(c2ccc3c(c2)[nH]/c(=N\C(=O)c2ccnc(-c4cnn(C)c4C)c2)n3CC(C)(C)O)CC1` [I-045]: 2 nM.
Same read-out and setting: then `Cn1cc(-c2cc(C(=O)/N=c3\[nH]c4ccccc4n3C3CCOCC3)ccn2)cn1` [I-049], with 7 nM; and `COCCCNc1cc2[nH]/c(=N\C(=O)c3ccnc(-c4cnn(C)c4)c3)n(CC(C)(C)O)c2cc1C` [I-71], with 86 nM.
The same measure, in the same setting: the same measure for `COc1ccccc1-c1cc(C(=O)/N=c2\[nH]c3cc(CN4CCCCC4)ccc3n2CC(C)(C)O)ccn1` [I-059]: 3 nM; for `COc1ccccc1-c1cc(C(=O)/N=c2\[nH]c3cc(CN4CC[C@@H](OC)C4)ccc3n2[C@H]2CC[C@@H](O)CC2)ccn1` [I-159]: 6 nM; for `Cc1cc(C(=O)/N=c2\[nH]c3ccc(N4CCN(C)CC4)cc3n2C2CCCCC2)cc(-c2cnn(C)c2)n1` [I-233]: 2 nM.
For `COc1cccc(-c2cc(C(=O)/N=c3\[nH]c4ccccc4n3CC(C)(C)O)ccn2)c1` [I-99], in assay [2], the concentration for half-maximal inhibition (IC50) turned out to be 42 nM.
On the same count and under the same terms, the same measure for `COc1ccccc1-c1cc(C(=O)/N=c2\[nH]c3ccccc3n2[C@@H]2CCCOC2)ccn1` [I-122]: 2 nM.

Source of the values: US11174245B2, “Benzimidazole compounds and derivatives as EGFR inhibitors” (Boehringer Ingelheim International GmbH, priority 2018, dated 2021).
